From patent publication US9132140B2, “Boronic acid derivatives and therapeutic uses thereof” (Rempex Pharmaceuticals, Inc., priority 2013, dated 2015)

Columns and labels:
SHV-12 = SHV-12 (Klebsiella pneumoniae, UniProt P0AD64, E235K/G234S/L31Q); assay: Inhibition of purified beta-lactamase, nitrocefin cleavage; type: biochemical; conditions: read-out: Ki (SHV-12, NCF)
Experimental: (§1) Purified enzymes were mixed with various concentrations of inhibitors in reaction buffer and incubated for 10 min at room temperature. Nitrocefin was added and substrate cleavage profiles were recorded at 490 nm every 10 sec for 10 min.

OXA-48 = OXA-48 (Klebsiella pneumoniae, UniProt Q6XEC0); assay: as above; type: biochemical; conditions: read-out: Ki (OXA-48, NCF)
Chain of OXA-48 (Q6XEC0 23-265, looked up): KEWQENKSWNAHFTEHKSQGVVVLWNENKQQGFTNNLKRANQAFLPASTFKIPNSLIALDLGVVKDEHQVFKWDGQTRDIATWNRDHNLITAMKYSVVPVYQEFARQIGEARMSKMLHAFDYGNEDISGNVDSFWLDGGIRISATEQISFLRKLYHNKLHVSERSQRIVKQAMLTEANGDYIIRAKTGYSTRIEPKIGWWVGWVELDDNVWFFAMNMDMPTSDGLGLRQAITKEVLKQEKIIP
Experimental: as §1

CTX-M-14 = CTX-M-14 (Escherichia coli, UniProt Q9L5C7); assay: as above; type: biochemical
Chain of CTX-M-14 (Q9L5C7 entry or part of it): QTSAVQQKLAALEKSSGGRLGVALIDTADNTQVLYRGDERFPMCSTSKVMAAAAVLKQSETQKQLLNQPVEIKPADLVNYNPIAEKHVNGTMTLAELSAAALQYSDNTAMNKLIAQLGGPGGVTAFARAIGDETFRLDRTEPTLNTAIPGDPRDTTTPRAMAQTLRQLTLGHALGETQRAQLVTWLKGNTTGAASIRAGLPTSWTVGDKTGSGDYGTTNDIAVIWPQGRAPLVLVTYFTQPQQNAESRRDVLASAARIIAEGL
Experimental: as §1

P99/AmpC of ECL = P99/AmpC of ECL (Enterobacter cloacae, UniProt P05364); assay: biochemical; conditions: nitrocefin; read-out: Ki (P99/AmpC of ECL, NCF)
Chain of P99/AmpC of ECL (P05364 21-381): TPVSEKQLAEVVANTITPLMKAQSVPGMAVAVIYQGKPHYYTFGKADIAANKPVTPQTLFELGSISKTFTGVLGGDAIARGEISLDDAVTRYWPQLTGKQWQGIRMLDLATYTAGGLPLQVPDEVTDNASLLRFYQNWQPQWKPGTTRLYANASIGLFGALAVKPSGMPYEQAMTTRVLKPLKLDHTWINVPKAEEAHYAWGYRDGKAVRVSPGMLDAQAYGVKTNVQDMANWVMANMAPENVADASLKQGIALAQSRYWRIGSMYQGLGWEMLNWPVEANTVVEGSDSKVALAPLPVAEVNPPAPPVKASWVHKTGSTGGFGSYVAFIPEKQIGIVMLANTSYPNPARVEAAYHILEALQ
Experimental: as §1

NDM-1 = NDM-1 (Klebsiella pneumoniae, UniProt C7C422); assay: biochemical; conditions: substrate imipenem 100 μM
Chain of NDM-1 (C7C422 29-270, looked up, species assumed): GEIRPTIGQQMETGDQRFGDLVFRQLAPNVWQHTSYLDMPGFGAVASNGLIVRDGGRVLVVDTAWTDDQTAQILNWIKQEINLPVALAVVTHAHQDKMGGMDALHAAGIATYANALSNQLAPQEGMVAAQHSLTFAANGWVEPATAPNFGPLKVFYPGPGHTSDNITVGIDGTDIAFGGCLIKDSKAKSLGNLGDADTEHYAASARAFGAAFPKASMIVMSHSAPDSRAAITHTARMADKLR

[1] = tested on: ECL1057 (NDM-1, TEM-1, CTX-M-15); type: cell-based, Enterobacter cloacae
Description: (§2) Several strains simultaneously expressing both class A and class B carbapenemases, which were constructed using conjugation, were also included in the panel.

ECLM1014 (NDM, KPC) = type: cell-based, Enterobacter cloacae
Description: as §2

ECLM1018 (VIM, KPC) = type: cell-based, Enterobacter cloacae
Description: as §2

ECLM1017 (VIM, KPC) = type: cell-based, Enterobacter cloacae
Description: as §2

ECL1045 (VIM-1) = type: cell-based, Enterobacter cloacae
Description: as §2

ECLM1015 (NDM, KPC) = type: cell-based, Enterobacter cloacae
Description: as §2

ECL1036 (KPC) = type: cell-based, Enterobacter cloacae
Description: as §2

ECLM1013 (NDM, KPC) = type: cell-based, Enterobacter cloacae
Description: as §2

ECLM1016 (NDM, KPC) = type: cell-based, Enterobacter cloacae
Description: as §2

ECL1055 (KPC) = type: cell-based, Enterobacter cloacae
Description: as §2

ECL1082 (VIM-1) = type: cell-based, Enterobacter cloacae
Description: as §2

ECL1026 (KPC) = type: cell-based, Enterobacter cloacae
Description: as §2

Chain of SHV-12 (P0AD64 22-286 L31Q/G234S/E235K): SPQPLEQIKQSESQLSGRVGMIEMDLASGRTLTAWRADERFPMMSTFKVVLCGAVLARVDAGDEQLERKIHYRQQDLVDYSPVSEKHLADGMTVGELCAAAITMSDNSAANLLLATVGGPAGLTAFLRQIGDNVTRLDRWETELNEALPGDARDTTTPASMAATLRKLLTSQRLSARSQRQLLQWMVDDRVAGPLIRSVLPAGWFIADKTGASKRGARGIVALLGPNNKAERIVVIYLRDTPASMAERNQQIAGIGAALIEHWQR

## Nn1cnnc1S[C@H]1Cc2cccc(C(=O)O)c2OB1O [Compound 14, (R)-3-(4-amino-4H-1,2,4-triazol-3-ylthio)-2-hydroxy-3,4-dihydro-2H-benzo[e][1,2]oxaborinine-8-carboxylic acid]
SHV-12
  Ki: < 100 nM
OXA-48
  Ki: < 100 nM
CTX-M-14
  Ki: < 100 nM
P99/AmpC of ECL
  Ki: < 100 nM
NDM-1
  Ki: 10 to 100 nM
[1]
  Imipenem + 14 MIC: Y (key: X: MIC of less than 1 μg/mL; Y: MIC of 1 μg/mL to 10 μg/mL; Z: MIC of greater than 10 μg/mL)
  Meropenem + 14 MIC: Z (key: X: MIC of less than 1 μg/mL; Y: MIC of 1 μg/mL to 10 μg/mL; Z: MIC of greater than 10 μg/mL)
ECLM1014 (NDM, KPC)
  Imipenem + 14 MIC: X (key: X: MIC of less than 1 μg/mL; Y: MIC of 1 μg/mL to 10 μg/mL; Z: MIC of greater than 10 μg/mL)
  Meropenem + 14 MIC: X (key: X: MIC of less than 1 μg/mL; Y: MIC of 1 μg/mL to 10 μg/mL; Z: MIC of greater than 10 μg/mL)
ECLM1018 (VIM, KPC)
  Imipenem + 14 MIC: Y (key: X: MIC of less than 1 μg/mL; Y: MIC of 1 μg/mL to 10 μg/mL; Z: MIC of greater than 10 μg/mL)
  Meropenem + 14 MIC: X (key: X: MIC of less than 1 μg/mL; Y: MIC of 1 μg/mL to 10 μg/mL; Z: MIC of greater than 10 μg/mL)
ECLM1017 (VIM, KPC)
  Imipenem + 14 MIC: X (key: X: MIC of less than 1 μg/mL; Y: MIC of 1 μg/mL to 10 μg/mL; Z: MIC of greater than 10 μg/mL)
  Meropenem + 14 MIC: X (key: X: MIC of less than 1 μg/mL; Y: MIC of 1 μg/mL to 10 μg/mL; Z: MIC of greater than 10 μg/mL)
ECL1045 (VIM-1)
  Imipenem + 14 MIC: X (key: X: MIC of less than 1 μg/mL; Y: MIC of 1 μg/mL to 10 μg/mL; Z: MIC of greater than 10 μg/mL)
  Meropenem + 14 MIC: X (key: X: MIC of less than 1 μg/mL; Y: MIC of 1 μg/mL to 10 μg/mL; Z: MIC of greater than 10 μg/mL)
ECLM1015 (NDM, KPC)
  Imipenem + 14 MIC: X (key: X: MIC of less than 1 μg/mL; Y: MIC of 1 μg/mL to 10 μg/mL; Z: MIC of greater than 10 μg/mL)
  Meropenem + 14 MIC: X (key: X: MIC of less than 1 μg/mL; Y: MIC of 1 μg/mL to 10 μg/mL; Z: MIC of greater than 10 μg/mL)
ECL1036 (KPC)
  Imipenem + 14 MIC: X (key: X: MIC of less than 1 μg/mL; Y: MIC of 1 μg/mL to 10 μg/mL; Z: MIC of greater than 10 μg/mL)
  Meropenem + 14 MIC: X (key: X: MIC of less than 1 μg/mL; Y: MIC of 1 μg/mL to 10 μg/mL; Z: MIC of greater than 10 μg/mL)
ECLM1013 (NDM, KPC)
  Imipenem + 14 MIC: X (key: X: MIC of less than 1 μg/mL; Y: MIC of 1 μg/mL to 10 μg/mL; Z: MIC of greater than 10 μg/mL)
  Meropenem + 14 MIC: X (key: X: MIC of less than 1 μg/mL; Y: MIC of 1 μg/mL to 10 μg/mL; Z: MIC of greater than 10 μg/mL)
ECLM1016 (NDM, KPC)
  Imipenem + 14 MIC: X (key: X: MIC of less than 1 μg/mL; Y: MIC of 1 μg/mL to 10 μg/mL; Z: MIC of greater than 10 μg/mL)
  Meropenem + 14 MIC: X (key: X: MIC of less than 1 μg/mL; Y: MIC of 1 μg/mL to 10 μg/mL; Z: MIC of greater than 10 μg/mL)
ECL1055 (KPC)
  Imipenem + 14 MIC: X (key: X: MIC of less than 1 μg/mL; Y: MIC of 1 μg/mL to 10 μg/mL; Z: MIC of greater than 10 μg/mL)
  Meropenem + 14 MIC: X (key: X: MIC of less than 1 μg/mL; Y: MIC of 1 μg/mL to 10 μg/mL; Z: MIC of greater than 10 μg/mL)
ECL1082 (VIM-1)
  Imipenem + 14 MIC: X (key: X: MIC of less than 1 μg/mL; Y: MIC of 1 μg/mL to 10 μg/mL; Z: MIC of greater than 10 μg/mL)
  Meropenem + 14 MIC: X (key: X: MIC of less than 1 μg/mL; Y: MIC of 1 μg/mL to 10 μg/mL; Z: MIC of greater than 10 μg/mL)
ECL1026 (KPC)
  Imipenem + 14 MIC: X (key: X: MIC of less than 1 μg/mL; Y: MIC of 1 μg/mL to 10 μg/mL; Z: MIC of greater than 10 μg/mL)
  Meropenem + 14 MIC: X (key: X: MIC of less than 1 μg/mL; Y: MIC of 1 μg/mL to 10 μg/mL; Z: MIC of greater than 10 μg/mL)
